We go through six compounds from patent publication US5888993A, “Vanadium compounds in the treatment of elevated blood sugar levels” (The University of British Columbia, priority 1997, dated 1999).

Values joined by “and” are separate entries in the source; they are usually repeats but may differ in a detail not shown here. Equal entries are not always repeated.

In series [1] the test system is diabetic rats. Put plainly: Glucose time course after gavage of ammonium bis(maltolato)dioxovanadate in STZ diabetic rats. Conditions: 0.55 mmoles/kg gavage. It counts as in vivo, male Wistar rats. As to the method:
Six male Wistar rats, weighing 175-200 gm, were made diabetic by the intravenous injection of 60 mg/kg of streptozotocin dissolved in 0.9% saline via the tail vein. Seven days after the injection the rats were diabetic having an average glucose concentration of 24.20 mM. 0.55 mmoles/kg of the ammonium salt of bis(maltolato)dioxovanadate suspended in 3% acacia was gavaged into the rats. Blood was collected and analyzed for glucose as a function of time.

The test system of series [2] is diabetic rats. Description: Comparative testing, plasma glucose after oral gavage in STZ diabetic rats. It counts as in vivo, male wistar rats. Conditions: oral gavage 1 mmol/kg. The procedure: Diabetes was induced in all animals by a single intravenous injection of streptozotocin (STZ) 60 mg/kg in 0.9% NaCl via the tail vein. Three days after STZ injection, blood was collected from the tail by nicking the tail tip and expressing the blood into heparinized capillary tubes. Blood was centrifuged at 20,000 g for 10 minutes to separate the plasma. Glucose analysis was done immediately on the plasma sample using a Boehringer Mannheim kit. […] One week after STZ injection animals were randomly divided into 3 pairs of rats. Each pair of rats received by oral gavage 1 mmol/kg of BMOV or VO(Sal)2 or VO(acac)2, suspended in 3% acacia.

The nature of series [3]: log p (partition coefficient). Format: physicochemical.
In series [4] the test system is diabetic rats. Put plainly: Comparison of BMOV and vanadyl kojate, acute time course of plasma glucose, rats made diabetic with STZ. Also on record: plasma glucose level: unit not given here. Format: in vivo, rat. As to the method: Using BMOV and Vanadyl Kojate as prepared in Examples 1 and 2 above, the relative efficacy of the two compounds was assessed using rats made diabetic with STZ. Again the animals were divided into responder and non-responder groups. For a 0.063 mmol V/kg ip injection, BMOV gave a 50:50 split between responder and non-responder groups whereas for vanadyl kojate the ratio was 60:40. On oral gavage of 0.55 mmol V/kg the responder:non-responder ratios were 50:50 and 57:43 respectively (n=10). However over a 12 day test period, there was a 100% response in terms of blood glucose reduction for diabetic rats receiving vanadyl kojate orally.

Series [5] deals with spontaneously hypertensive rats (SHR). Description: Blood pressure reduction by vanadyl sulphate, spontaneously hypertensive rats. Format: in vivo, rat. The settings on record: for systolic blood pressure / hypertension, prevention: 75-125 mg/kg/day in drinking water. As to the method: (§1) The insulin resistant spontaneously hypertensive rat was used as the experiment model and the vanadyl form of vanadium as the experimental intervention. […] Rats, procured at 4 weeks of age, were divided
(§2) into 4 groups: SHR (untreated), SHRV (treated), WKY (untreated), WKYV (treated). Chronic vanadyl sulfate treatment (0.75 mg/ml ad libitum in the drinking water) was started on the SHRV and WKYV groups at 5 weeks of age. After week 8, when hypertension becomes fully manifest in the SHR, weekly measurements of plasma insulin and systolic blood pressure (tail cuff method) were done on all four groups.
(§3) At week 11, the untreated control SHR and WKY groups from the prevention study were further subdivided and half the animals in each group were started on oral vanadyl sulfate treatment. This was done to observe the reversal effects of vanadyl, if any, after the SHR had become hypertensive. […] A direct blood pressure reading done in all groups at termination validated the earlier indirect measurements. Vanadyl sulfate prevented as well as reversed hypertention in the hyperinsulinemic spontaneously hypertensive rat, a model that closely resembles human essential hypertension. Besides establishing further the role that insulin resistance/hyperinsulinemia may play in the development of high blood pressure, this study also indicated a possible therapeutic role for vanadyl sulfate in hypertensive, hyperinsulinemic subjects.

Series [6] concerns Wistar Kyoto (WKY) rats. Description: Blood pressure study with vanadyl sulphate, normotensive Wistar Kyoto rats. It counts as in vivo, rat. The settings on record: for changes in normotensive animals, prevention: WKYV; for effect in Wistar Kyoto rats, reversal: WKYV1, treatment from week 11. As to the method: as §1, §2, §3
The subject of series [7] is rats made diabetic with streptozoticin (STZ). The settings on record: oral / drinking water; cited from earlier work.
For series [8] the following is noted: in vivo; cited from earlier work.
For series [9] the following is noted: in vivo; cited from earlier work. This is another data set of the same source.
In series [10] the test system is STZ-diabetic rats. Put plainly: Comparison of BMOV and ETHYLBMOV, plasma glucose and insulin in STZ-diabetic rats. Format: in vivo, rat. Conditions: 0.6 mmol kg^-1, one oral gavage, 24 hour period. As to the method: Animal studies were conducted in STZ-diabetic rats comparing doses of 0.6 mmol kg^-1 for VO(ma)2 (BMOV) and VO(ema)2 (ETHYLVMOV). FIGS. 8 and 9 respectively show plasma glucose and plasma insulin values recorded over 24 hour periods after one oral gavage of a water solution of either BMOV or ETHYLBMOV, in order to compare their efficacies.

The mark [11] stands for this setting: 0 h, individual rats (two per drug).
Setting [12] is: SHRV, 75-125 mg/kg/day, weeks 8-12.

Take `Cc1occc(=O)c1[O-].Cc1occc(=O)c1[O-].[NH4+].[O]=[V+]=[O]` [Ammonium bis(maltolato)dioxovanadate]: the “reduction of elevated glucose levels, in words” value in [1] was “effective in reducing the elevated glucose levels”. For the same compound, the Glucose is 24.2 mM in [1] (0 h); 24.4 mM in [1] (1 h); 25.5 mM in series [1] (2 h); 24.7 mM in series [1] (4 h); 22.3 mM in [1] (8 h); 20.1 mM in series [1] (12 h). This compound also had a Glucose in series [1] (24 h) of 14.9 mM.

Regarding `O=Cc1ccccc1[O-].O=Cc1ccccc1[O-].[O]=[V+2]` [VO(Sal)2, Bis(salicylaldehyde)oxovanadium(IV)], the plasma glucose level in series [2] (setting [11]) was 21.09 mM and 21.12 mM; in [2] (2 h, individual rats), 22.77 mM and 22.31 mM; in [2] (4 h, individual rats), 20.18 mM and 21.74 mM; in [2] (6 h, individual rats) it was 20.67 mM and 21.85 mM; in series [2] (8 h, individual rats) it was 21.57 mM and 21.59 mM; in series [2] (12 h, individual rats) it was 19.24 mM and 19.74 mM. Also, the plasma glucose level in series [2] (24 h, individual rats) is 18.73 mM and 18.64 mM.

With `CC(=O)/C=C(/C)[O-].CC(=O)/C=C(/C)[O-].[O]=[V+2]` [VO(acac)2, Bis(acetylacetonate)oxovanadium(IV)], the plasma glucose level was 23.87 mM and 22.74 mM in series [2] (setting [11]); 22.91 mM and 24.5 mM in [2] (2 h, individual rats); 22.37 mM and 22.89 mM in series [2] (4 h, individual rats); 23.96 mM and 22.94 mM in [2] (6 h, individual rats); 27.19 mM and 23.65 mM in [2] (8 h, individual rats); 19.13 mM and 18.86 mM in series [2] (12 h, individual rats). The same compound displayed a plasma glucose level in series [2] (24 h, individual rats) of 2.43 mM. The death entry in series [2] (24 h, rat 5) is recorded as “dead”.

In the case of `[O]=[V-2]12([O]C3=COC(CO)=CC3=[O+]1)[O]C1=COC(CO)=CC1=[O+]2` [vanadyl kojate, Bis(kojato)oxovanadium(IV)], the log p in series [3] was determined as 0.012. Also, the plasma glucose level in series [4] (i.p. 0.063 mmol/kg, nonresponders (DTN), 0 h) is 20.86; in series [4] (i.p. 0.063 mmol/kg, nonresponders (DTN), 1 h), 18.55; in series [4] (i.p. 0.063 mmol/kg, nonresponders (DTN), 2 h) it was 16.62; in series [4] (i.p. 0.063 mmol/kg, nonresponders (DTN), 4 h), 17.37; in series [4] (i.p. 0.063 mmol/kg, nonresponders (DTN), 6 h), 16.62; in [4] (i.p. 0.063 mmol/kg, nonresponders (DTN), 8 h), 15.49. Further, the plasma glucose level in series [4] (i.p. 0.063 mmol/kg, nonresponders (DTN), 12 h) was found to be 18.24; in series [4] (i.p. 0.063 mmol/kg, nonresponders (DTN), 24 h) it was 18.77; in [4] (i.p. 0.063 mmol/kg, responders (DTR), 0 h), 17.94; in series [4] (i.p. 0.063 mmol/kg, responders (DTR), 1 h) it was 14.75; in series [4] (i.p. 0.063 mmol/kg, responders (DTR), 2 h), 10.17; in [4] (i.p. 0.063 mmol/kg, responders (DTR), 4 h), 9.26. Also, the plasma glucose level came to 8.73 in series [4] (i.p. 0.063 mmol/kg, responders (DTR), 6 h); 7.4 in series [4] (i.p. 0.063 mmol/kg, responders (DTR), 8 h); 10.37 in series [4] (i.p. 0.063 mmol/kg, responders (DTR), 12 h); 13.28 in [4] (i.p. 0.063 mmol/kg, responders (DTR), 24 h); 23.08 in [4] (oral gavage 0.55 mmol/kg, nonresponders (DTN), 0 h); 21.18 in [4] (oral gavage 0.55 mmol/kg, nonresponders (DTN), 1 h). Moreover, the plasma glucose level was 21.51 in [4] (oral gavage 0.55 mmol/kg, nonresponders (DTN), 2 h); 20.57 in [4] (oral gavage 0.55 mmol/kg, nonresponders (DTN), 4 h); 18.2 in [4] (oral gavage 0.55 mmol/kg, nonresponders (DTN), 6 h); 19.06 in series [4] (oral gavage 0.55 mmol/kg, nonresponders (DTN), 8 h); 18.81 in [4] (oral gavage 0.55 mmol/kg, nonresponders (DTN), 12 h); 25.0 in series [4] (oral gavage 0.55 mmol/kg, nonresponders (DTN), 24 h). Moreover, the plasma glucose level in [4] (oral gavage 0.55 mmol/kg, responders (DTR), 0 h) amounted to 15.75; in [4] (oral gavage 0.55 mmol/kg, responders (DTR), 1 h), 12.5; in series [4] (oral gavage 0.55 mmol/kg, responders (DTR), 2 h) it was 10.1; in series [4] (oral gavage 0.55 mmol/kg, responders (DTR), 4 h) it was 7.96; in [4] (oral gavage 0.55 mmol/kg, responders (DTR), 6 h), 6.6; in series [4] (oral gavage 0.55 mmol/kg, responders (DTR), 8 h), 6.87. The plasma glucose level in [4] (oral gavage 0.55 mmol/kg, responders (DTR), 12 h) came to 6.01; in series [4] (oral gavage 0.55 mmol/kg, responders (DTR), 24 h), 6.74. For the same compound, in [4] (oral, 12 day test period), the “food and fluid demand” value is given as “significantly reduced”. In [4] (oral, 12 day test period), the “response in terms of blood glucose reduction” value turned out to be 100%.

With `O=S(=O)([O-])[O-].[O]=[V+2]` [vanadyl sulfate], in [5] (SHRV1, treatment from week 11), the “hypertension / blood pressure, reversal” value is reported as “reversed hypertension” and the “plasma insulin, reversal” value is reported as “lowering their plasma insulin to control values”. Also, the “hypertension / blood pressure, reversal” value in [5] (SHRV1, treatment from week 11, listed as vanadyl) was “reduce the blood pressure”. Moreover, the “systolic blood pressure / hypertension, prevention” value in [5] (SHRV, weeks 8-12) was “lowered both plasma insulin and systolic blood pressure”. Besides, the “systolic blood pressure / hypertension, prevention” value in [5] (SHRV, weeks 8-12, listed as vanadyl) is on record as “prevents the onset of hypertension”. Also, in series [5] (setting [12]), the plasma glucose levels result is “without causing any change in the plasma glucose levels”; the “plasma insulin, prevention” value is “lowered both plasma insulin and systolic blood pressure”. Further, the “gastrointestinal, renal or hepatic toxicity” value in [5] (treated animals, 75-125 mg/kg/day, entire experimental period) was “No gastrointestinal, renal or hepatic toxicity”. Further, in [6], the “changes in normotensive animals, prevention” value was “No changes were seen” and the “effect in Wistar Kyoto rats, reversal” value is “no effect”. For the same compound, in series [6] (listed as vanadyl), the “effect in Wistar Kyoto rats, reversal” value is on record as “no effect is observed” and the “changes in normotensive animals, prevention” value is “No change is observed”. The “adverse effect on normal animals (hypotension)” value in series [6] (normal animals) is on record as “no adverse effect on normal animals”. In series [7], the blood glucose result was “lowers blood glucose and blood lipids”; the “cardiac performance / secondary complications of diabetes” value is “prevents secondary complications of diabetes such as cataracts and cardiac dysfunction”. In addition, the “absorption from the gastrointestinal tract” value in series [8] is on record as “poorly absorbed”. Besides, in series [9], the toxicity entry is “less toxic than the vanadate form of vanadium”.

As to “Bis(ethylmaltolato)oxovanadium(IV) [ETHYLBMOV]”, in series [10], the “plasma glucose, difference BMOV vs ETHYLBMOV” value is “statistically insignificant” and the “plasma insulin, difference BMOV vs ETHYLBMOV” value is reported as “statistically insignificant”.
